From patent US9321804B2, “Synthesis and use of anti-tumor drug LQC-Y” (Beijing University of Chinese Medicine, priority 2011, dated 2016)
“Also recorded” adds a separate entry of the source. Structures can show the parent of a compound that is named as a salt.

Tests used:
S180 sarcoma of mice [1] = assay: Tumor inhibiting effect of LQC-Y3 on tumor bearing S180 mice
Experimental: (§1) The S180 mice that had been inoculated for 7 days were killed by breaking the neck thereof and ascites was taken from the mice respectively in an aseptic environment and the ascites was washed using RPMI1640 culture medium for 2 times and then made into a 2×10^7/ml cell suspension using aseptic physiological saline. Then the obtained S180 cell suspension was inoculated hypodermically at the right axillary of mice, 0.1 ml for each mouse and 50 mice total, to establish the solid tumor model.
(§2) 60 mice were divided into 2 categories, including 6 groups, according to the random number table method, i.e. normal control group of the first category, and S180 solid tumor groups of the second category which included positive (cyclophosphamide) control group, negative control group, small dosage group, middle dosage group and large dosage group, 10 mice for each group. The experiment was repeated for 3 times.
LQC-Y3 was prepared using 0.5% CMC-Na. The dosage of the small dosage group was 75 mg/Kg, the dosage of the middle dosage group was 150 mg/Kg, and the dosage of the large dosage group was 300 mg/kg. Equal volume of 0.5% CMC-Na was injected into the mice of the negative control group and cyclophosphamide injection 0.02 g/(Kg.d) was injected into the mice of the positive control group. These medicines were administrated 0.1 ml per mouse by intraperitoneal injection every the other day continuously for 15 days. During this period, the common behavior, hair, excrement and so on were observed daily. The mice that had been inoculated with S180 by hypodermic inoculation were killed by breaking the neck thereof after 24 h after the last administration and the tumor, liver and spleen were then taken.
(§3) The weight of the solid tumor group mice were measured after all the administration was finished and then the mice were killed. The spleens and the livers thereof were weighed by an electronic balance. The spleen index was calculated as the spleen weight of a mouse (mg)/the body weight of a mouse (g) and the liver index was calculated as the liver weight of a mouse (100 g)/the body weight of a mouse (g).
(§4) The solid tumor negative control group mice were weighed on the next day after the administration was finished (the eyeballs of the mice were removed to bleed and the serum was collected for subsequent experimental use). Then the mice were killed by breaking the neck thereof. The tumor tissues were taken out and weighed by an electronic balance to calculate the tumor inhibiting ratio.
(§5) All the data were statistically analyzed using SPSS11.0 software pack. The comparison of the enumeration data was carried out with X^2 test. P<0.05 had statistical significance.

S180 sarcoma of mice [2] = assay: Tumor inhibiting effect of LQC-Y2 in tumor bearing S180 mice
Experimental: as §1, with “[…] /ml” for “2×10^7/ml”
as §2
LQC-Y2 was made into an emulsion using corn oil. The dosage of the small dosage group was 75 mg/Kg, the dosage of the middle dosage group was 150 mg/Kg, and the dosage of the large dosage group was 300 mg/kg. Equal volume of corn oil was injected into the mice of the negative control group, cyclophosphamide injection 0.02 g/(Kg.d) was injected into the mice of the positive control group. These medicines were administrated 0.1 ml per mouse by intraperitoneal injection every the other day continuously for 15 days. During this period, the common behavior, hair and excrement and so on were observed daily. The mice that had been inoculated with S180 by hypodermic inoculation were killed by breaking the necks thereof after 24 h after the last administration and the tumor, liver and spleen were then taken.
as §3, with “over” for “finished”, “mouse(g)” for “mouse (g)”, “mouse(100” for “mouse (100”, “mouse(g).” for “mouse (g).”
as §4, with “tumor-inhibiting” for “tumor inhibiting”
as §5

[3] = system: Human hepatoma carcinoma cells Bel7402; assay: Proliferation of human hepatoma carcinoma cells Bel7402 by MTT; format: cell-based; conditions: for 24 h inhibition ratio (%): Bel7402 cells; for inhibiting effect on the proliferation of Bel7402 cells: cultured in vitro, 10-40 μg/ml
Experimental: Human hepatoma carcinoma cells Bel7402 were recovered and subcultured using a culture flask. The preparation of the experiment was started when the cell growth entered into the exponential growth phase. The cells were then digested using pancreatic enzyme which had been filtrated at an increased pressure to prepare the cell suspension. After that the suspension was dyed for 3 min with 0.4% trypan blue. Then a blood cell counting plate was used to count the living cells which were not dyed and the dead cells which were dyed to blue. The number of the living cells identified by trypan blue was more than 98%.
Three kinds of cells which were in the exponential growth phase were inoculated at the density of 1×10^4/ml, to a 96-well plate, 200 μl for each well. Then the plate was put in a 37° C. 5% CO2 incubation box to be cultured for 24 h. The cultivation liquid was sucked away and 200 μl LQC-Y solutions of different concentrations were added thereinto (prepared with DMEM cultivation liquid containing 4% calf serum and the final concentration of which respectively were 10 μg, 20 μg, 40 μg), 4 parallel wells for each concentration. Supernatant cultivation liquid 100 μl was sucked away carefully from each well after being cultured for 24 h and 48 h, and MTS 20 μl was added into each well and homogeneously mixed. The resultant liquid was cultured in a 37° C. 5% CO2 incubation box for a further 1 h. An enzyme-labeling quantitative instrument was used to measure the absorbance at 492 nm. The experiment was repeated for 3 times and then an inhibition ratio was calculated.
The inhibition ratio of cell proliferation (%)=[(average OD value of control group-average OD value of the administration group)/average OD value of control group]×100%

[4] = system: Human hepatoma carcinoma cells Bel7402; assay: as above; format: cell-based; conditions: 40 μg/ml
ICR white mice = assay: Acute toxic experiment of mice by oral administration; format: in vivo; set-up: key to Animal reaction in 14 days after the administration: Appearance / Animal reaction in 14 days after the administration: Behavior / Animal reaction in 14 days after the administration: Hair / Animal reaction in 14 days after the administration: Respiration / Animal reaction in 14 days after the administration: Posture / Animal reaction in 14 days after the administration: Reaction: ✓ means normal; conditions: for Animal reaction in 14 days after the administration: Death: 10 animals; for Animal reaction in 14 days after the administration: Death / Animal reaction in 14 days after the administration: Appearance / Animal reaction in 14 days after the administration: Behavior / Animal reaction in 14 days after the administration: Hair / Animal reaction in 14 days after the administration: Posture / Animal reaction in 14 days after the administration: Reaction / Animal reaction in 14 days after the administration: Respiration: oral 3 x 2000 mg/kg (6000 mg/kg) in one day
Experimental: 1. Experimental Project: Acute Toxic Experiment of Mice by Oral Administration
ICR white mice (half female and half male, 18-22 g, experiment animal certificate No.: SCXK (Jing) 2006-0009);
LQC-Y3 (white powder (self prepared); and LQC-Y3 5000 mg was dissolved into 0.5% sodium carboxymethyl cellulose 100 ml and then suspended by supersonic wave. The suspension was used in situ).
The qualified animals were quarantined and weighed before the administration. Then the animals were divided into groups randomly by weight. The intragastric administration tool for mice was used to carry out the intragastric administration. The mice were fasted but not water-deprived (continuously for 14 h) overnight before being administrated. The mice were administrated at 9:00 AM for the first time (2000 mg/kg) on the present administration day and observed continuously for 1 h. The mice were administrated for the second time (2000 mg/kg) at an interval of 6 h since the first administration and observed continuously for 1 h. The mice were administrated for the third time (2000 mg/kg) at an interval of 6 h since the second administration, observed continuously for 1 h and then the mice were fed.

[5] = S180 Balb/C mice, cyclophosphamide 0.02 g/(Kg.d) i.p., 15 days
[6] = S180 mice, cyclophosphamide 0.02 g/(Kg.d) i.p., 15 days
[7] = S180 Balb/C mice, large dosage 300 mg/kg i.p. every other day, 15 days
[8] = S180 Balb/C mice, middle dosage 150 mg/Kg i.p. every other day, 15 days
[9] = S180 Balb/C mice, small dosage 75 mg/Kg i.p. every other day, 15 days

In the case of O=P1(N(CCCl)CCCl)NCCCO1 (stereo not shown) [Cyclophosphamide, reference compound], the “liver index compared with the negative control group” value (S180 sarcoma of mice [1]; LQC-Y3 dosage groups, cyclophosphamide 0.02 g/(Kg.d)) is reported as “smaller than those of the negative control group”, the “Tumor inhibiting ratio (%)” value (S180 sarcoma of mice [1]; [5]) is reported as 73.40% and the “Tumor weight (g)” value (S180 sarcoma of mice [1]; [5]) is reported as 0.25 ± 0.16^(4) g. The “Weight growth (g)” value (S180 sarcoma of mice [1]; [5]) was 6.90 ± 2.04^(1)(3) g, the “Liver index (100 g/g)” value (S180 sarcoma of mice [1]; [6]) was 5.19 ± 0.33 100 g/g and the “liver index compared with the negative control group” value (S180 sarcoma of mice [2]; LQC-Y2 dosage groups, cyclophosphamide 0.02 g/(Kg.d)) was “smaller than those of the negative control group”. For the same compound, the “Tumor inhibiting ratio (%)” value (S180 sarcoma of mice [2]; [5]) was 88.55%, the “Tumor weight (g)” value (S180 sarcoma of mice [2]; [5]) was 0.15 ± 0.13^(4) g and the “Weight growth (g)” value (S180 sarcoma of mice [2]; [5]) was 8.98 ± 3.80^(1)(3) g. For the same compound, the “Spleen index (100 g/g)” value (S180 sarcoma of mice [2]; [6]) was 5.29 ± 0.47^(1)(4) 100 g/g.

With Cc1nc(C)c(COC(=O)CCC(C)C2CCC3C4C(O)CC5CC(O)CCC5(C)C4CC(O)C23C)nc1C (stereo not shown) [LQC-Y1, (3,5,6-trimethyl pyrazine-2-yl)methyl-4-(3,7,12-trihydroxy-10,13-dimethylhexadecahydro-1H-cyclopenta[a]phenanthren-17-yl)pentanoate] the “24 h inhibition ratio (%)” value ([3]; 10 μg/ml) was 67.39%, the “24 h inhibition ratio (%)” value ([3]; 20 μg/ml) was 76.66% and the “inhibiting effect on the proliferation of Bel7402 cells” value (“inhibiting effect on the proliferation” for short) [3] was “evident inhibiting effect”. The “24 h inhibition ratio (%)” value [4] was 86.44%.

For Cc1nc(C)c(COC(=O)C23CCC(C)(C)CC2C2=CCC4C5(C)CCC(O)C(C)(C)C5CCC4(C)C2(C)CC3)nc1C (stereo not shown) [LQC-Y3, (3,5,6-trimethyl pyrazine-2-yl)methyl-10-hydroxy-2,2,6a,6b,9,9,12a-heptamethyl-1,2,3,4,4a,5,6,6a,6b,7,8,8a,9,10,11,12,12a,12b,13,14b-eicosahydropicene-4a-carboxylate], the “24 h inhibition ratio (%)” value ([3]; 10 μg/ml) was 34.53%, the “24 h inhibition ratio (%)” value ([3]; 20 μg/ml) was 89.07% and the “inhibiting effect on the proliferation” value [3] was “evident inhibiting effect”. For the same compound, the “24 h inhibition ratio (%)” value [4] was 99.16%, the “effect on the growth of the S180 mice sarcoma” value (S180 sarcoma of mice [1]; 75-300 mg/kg i.p.) was “can Notably Inhibit the Growth; also recorded: inhibit the growth of S180 tumor effectively” and the “Tumor inhibiting ratio (%)” value (S180 sarcoma of mice [1]; [7]) was 50.0%. The “Tumor weight (g)” value (S180 sarcoma of mice [1]; [7]) was 0.47 ± 0.23^(3) g, the “Tumor inhibiting ratio (%)” value (S180 sarcoma of mice [1]; [8]) was 37.23% and the “Tumor weight” value (S180 sarcoma of mice [1]; [8]) was 0.59 ± 0.28 g. For the same compound, the “Tumor inhibiting ratio (%)” value (S180 sarcoma of mice [1]; [9]) was 33.98%, the “Tumor weight” value (S180 sarcoma of mice [1]; [9]) was 0.63 ± 0.30 g and the “effect on the growth of the S180 sarcoma mice's weight” value (S180 sarcoma of mice [1]; mouse, in vivo) was “no effect”. The “toxic reaction” value (ICR white mice; mice, maximum dosage of 6000 mg/kg per day, oral, observed continuously for 14 days, 6000 mg/kg/day) was “No toxic reaction; also recorded: no toxic or side effect”, the “Animal reaction in 14 days after the administration: Death” value (ICR white mice; ♀ ICR mice) was 0 and the “Animal reaction in 14 days after the administration: Appearance” value (ICR white mice; ♀ ICR mice) was “✓”. For the same compound, the “Animal reaction in 14 days after the administration: Behavior” value (ICR white mice; ♀ ICR mice) was “✓”, the “Animal reaction in 14 days after the administration: Hair” value (ICR white mice; ♀ ICR mice) was “✓” and the “Animal reaction in 14 days after the administration: Posture” value (ICR white mice; ♀ ICR mice) was “✓”. For the same compound, the “Animal reaction in 14 days after the administration: Reaction” value (ICR white mice; ♀ ICR mice) was “✓”, the “Animal reaction in 14 days after the administration: Respiration” value (ICR white mice; ♀ ICR mice) was “✓” and the “Animal reaction in 14 days after the administration: Death” value (ICR white mice; ♂ ICR mice) was 0. For the same compound, the “Animal reaction in 14 days after the administration: Appearance” value (ICR white mice; ♂ ICR mice) was “✓”, the “Animal reaction in 14 days after the administration: Behavior” value (ICR white mice; ♂ ICR mice) was “✓” and the “Animal reaction in 14 days after the administration: Hair” value (ICR white mice; ♂ ICR mice) was “✓”. For the same compound, the “Animal reaction in 14 days after the administration: Posture” value (ICR white mice; ♂ ICR mice) was “✓”, the “Animal reaction in 14 days after the administration: Reaction” value (ICR white mice; ♂ ICR mice) was “✓” and the “Animal reaction in 14 days after the administration: Respiration” value (ICR white mice; ♂ ICR mice) was “✓”.

For Cc1nc(C)c(COC(=O)C2(C)CCC3(C)CCC4(C)C(=CC(=O)C5C6(C)CCC(O)C(C)(C)C6CCC54C)C3C2)nc1C (stereo not shown) [LQC-Y4, (3,5,6-trimethyl pyrazine-2-yl)methyl-10-hydroxy-2,4a,6a,6b,9,9,12a-heptamethyl-13-oxo-1,2,3,4,4a,5,6,6a,6b,7,8,8a,9,10,11,12,12a,12b,13,14b-eicosahydropicene-2-carboxylate], the “24 h inhibition ratio (%)” value ([3]; 10 μg/ml) was 39.31%, the “24 h inhibition ratio (%)” value ([3]; 20 μg/ml) was 44.58% and the “inhibiting effect on the proliferation” value [3] was “evident inhibiting effect”. The “24 h inhibition ratio (%)” value [4] was 94.42%.

Cc1nc(C)c(COC(=O)c2cc(O)c3c(c2)C(=O)c2cccc(O)c2C3=O)nc1C [LQC-Y6, (3,5,6-trimethyl pyrazine-2-yl)methyl-4,5-dihydroxy-9,10-dioxo-9,10-dihydroanthracene-2-carboxylate] was tested, and the “24 h inhibition ratio (%)” value ([3]; 10 μg/ml) was 26.75%, the “24 h inhibition ratio (%)” value ([3]; 20 μg/ml) was 67.23% and the “inhibiting effect on the proliferation” value [3] was “inhibiting effect”. For the same compound, the “24 h inhibition ratio (%)” value [4] was 81.21%.

With Cc1nc(C)c(COC(=O)C2=CC(O)C(O)C(O)C2)nc1C (stereo not shown) [LQC-Y10, (3,5,6-trimethyl pyrazine-2-yl)methyl 3,4,5-trihydroxycyclohexyl-1-ene formate] the “24 h inhibition ratio (%)” value ([3]; 20 μg/ml) was 7.82%, the “inhibiting effect on the proliferation” value [3] was “inhibiting effect” and the “24 h inhibition ratio (%)” value [4] was 5.69%.
